Source: patent publication US20240018198A1, “MU-DIGUETOXIN-DC1A VARIANT POLYPEPTIDES FOR PEST CONTROL” (Vestaron Corporation, priority 2020, published 2024)
linker = not defined here; ERSP = not defined here

How the values were obtained:
[1] = tested on: Adult houseflies (Musca domestica); assay: Housefly injection assay with plant-expressed proteins (TSP extract); format: in vivo; conditions: 2 hours post-injection; 0.5 μL TSP extract per fly; impacted = knock-down and dead
Procedure: Full length DVP-insecticidal protein was purified from the tobacco by using a manual extraction technique. Leaf tissue was obtained via 30 mm diameter punch, from the infiltrated area, rolled up and placed inside a 2 mL conical bottom tube with two, 5/32 inch diameter stainless steel grinding balls, and frozen in liquid nitrogen. The samples were then homogenized using a Troemner-Talboys High Throughput Homogenizer. Next, a 750 μL ice-cold total soluble protein (TSP) extraction solution (sodium phosphate solution 50 mM, EDTA 1 mM, pH 7.0) was added into the tube and vortexed. The microtube was then left to incubate at room temperature for 15 minutes, and then centrifuged at 16,000×g for 15 minutes at 4° C. Next, 100 μL of the resulting supernatant was taken and loaded into pre-Sephadex G-50-packed column in 0.45 μm Millipore MultiScreen filter microtiter plate with empty receiving Costar microtiter plate on bottom. The microtiter plates were then centrifuged at 800 g for 2 minutes at 4° C. The resulting filtrate solution (hereinafter “total soluble protein extract” or “TSP extract”) of the tobacco leaves, was ready for downstream analysis.
Houseflies were injected with the TSP extract obtained from the plant extraction process described above. Prior to injection, adult houseflies (Musca domestica) were immobilized with CO2, and selected for injection based on weight (12-20 mg). […] Impacted scores include knock-down and dead.

[2] = tested on: Corn earworm (Helicoverpa zea); assay: Screen for mutants improving CEW activity (injection of concentrated supernatants); format: in vivo
Procedure: Mutations of Dc1a were made to screen for recovery of CEW activity. Here, mutants were synthesized and cloned according the methods described above. […] Supernatants were combined and concentrated 10× using centrifugal filtration cassettes (Pall) with a 3000 Da molecular weight cutoff. Concentrates were then injected into Corn earworm (Helicoverpa zea).
Corn earworm (CEW) larvae were injected in their fourth instar. Eggs of H zea were purchased (Benzon Research, 7 Kuhn Dr, Carlisle, PA, 17015) and reared to fourth instar on General Purpose Lepidoptera Diet (Frontier Agricultural Science, Newark, DE). Prior to injection larvae were weighed in order to calculate μmol/g doses. Injections volumes are 1 μL, and were performed with a 30 gauge needle and glass syringe in a hand microapplicator (Burkard, Rickmansworth, Herts, England). The injection site was near the base of one of the hindmost prolegs. Following the injection, larvae are placed in a new enclosure with General Purpose Lepidoptera Diet and their condition (including mortality, sublethal effects, and behavior) is evaluated 24-hours post-injection.

Row | Substance | % Impacted [1] | Activity ([2]; Table 9: CEW fourth instar, 10x concentrated supernatants, 1 μL injection, 24 hours) | CEW KD50 ([2]; Table 10: category relative to WT)
1 | M3: plant-expressed DVP-insecticidal protein ERSP-UBI-L-DVP-HIS, DVP SEQ ID NO 189 ({ERSP-ubiquitin-linker}-AKDGDVEGPAGCKKYDVECDSGECCQKQYLWHKWRALDCRCLKSGFFSSKCVCRDV-{His tag}; cysteine pairing not given here; reading uncertain) | 80% | – | –
2 | M4: plant-expressed DVP-insecticidal protein ERSP-UBI-L-DVP-HIS, DVP SEQ ID NO 190 ({ERSP-ubiquitin-linker}-AKDGDVEGPAGCKKYDVECDSGECCQKQYLFSKWRPLDCRCLKSGFFSSKCVCRDV-{His tag}; cysteine pairing not given here; reading uncertain) | 100% | – | –
3 | M1: plant-expressed DVP-insecticidal protein ERSP-UBI-L-DVP-HIS, DVP SEQ ID NO 187 ({ERSP-ubiquitin-linker}-AKDGDVEGPAGCKKYDVECDSGECCQKQYLWSKWRALDCRCLKSGFFSSKCVCRDV-{His tag}; cysteine pairing not given here; reading uncertain) | 60% | – | –
4 | C41K/C51E/D38A/L42V: Mu-diguetoxin-Dc1a variant polypeptide; printed sequences differ at position 41 (D in Table 1, K in Table 9) (AKDGDVEGPAGCKKYDVECDSGECCQKQYLWYKWRPLACRKVKSGFFSSKEVCRDV; C41K/ C51E/ D38A/ L42V DVP) | – | Yes | Reduced (Reduced=>1.5)
5 | M2: plant-expressed DVP-insecticidal protein ERSP-UBI-L-DVP-HIS, DVP SEQ ID NO 188 ({ERSP-ubiquitin-linker}-AKDGDVEGPAGCKKYDVECDSGECCQKQYLWKKWRALDCRCLKSGFFSSKCVCRDV-{His tag}; cysteine pairing not given here; reading uncertain) | 60% | – | –
